Target: T1, PI3K p110g (Homo sapiens, UniProt P48736)
T1 construct: purchased Millipore
Experiment: PI3K p110g kinase assay
Assay type: biochemical

T1 sequence (P48736 whole entry): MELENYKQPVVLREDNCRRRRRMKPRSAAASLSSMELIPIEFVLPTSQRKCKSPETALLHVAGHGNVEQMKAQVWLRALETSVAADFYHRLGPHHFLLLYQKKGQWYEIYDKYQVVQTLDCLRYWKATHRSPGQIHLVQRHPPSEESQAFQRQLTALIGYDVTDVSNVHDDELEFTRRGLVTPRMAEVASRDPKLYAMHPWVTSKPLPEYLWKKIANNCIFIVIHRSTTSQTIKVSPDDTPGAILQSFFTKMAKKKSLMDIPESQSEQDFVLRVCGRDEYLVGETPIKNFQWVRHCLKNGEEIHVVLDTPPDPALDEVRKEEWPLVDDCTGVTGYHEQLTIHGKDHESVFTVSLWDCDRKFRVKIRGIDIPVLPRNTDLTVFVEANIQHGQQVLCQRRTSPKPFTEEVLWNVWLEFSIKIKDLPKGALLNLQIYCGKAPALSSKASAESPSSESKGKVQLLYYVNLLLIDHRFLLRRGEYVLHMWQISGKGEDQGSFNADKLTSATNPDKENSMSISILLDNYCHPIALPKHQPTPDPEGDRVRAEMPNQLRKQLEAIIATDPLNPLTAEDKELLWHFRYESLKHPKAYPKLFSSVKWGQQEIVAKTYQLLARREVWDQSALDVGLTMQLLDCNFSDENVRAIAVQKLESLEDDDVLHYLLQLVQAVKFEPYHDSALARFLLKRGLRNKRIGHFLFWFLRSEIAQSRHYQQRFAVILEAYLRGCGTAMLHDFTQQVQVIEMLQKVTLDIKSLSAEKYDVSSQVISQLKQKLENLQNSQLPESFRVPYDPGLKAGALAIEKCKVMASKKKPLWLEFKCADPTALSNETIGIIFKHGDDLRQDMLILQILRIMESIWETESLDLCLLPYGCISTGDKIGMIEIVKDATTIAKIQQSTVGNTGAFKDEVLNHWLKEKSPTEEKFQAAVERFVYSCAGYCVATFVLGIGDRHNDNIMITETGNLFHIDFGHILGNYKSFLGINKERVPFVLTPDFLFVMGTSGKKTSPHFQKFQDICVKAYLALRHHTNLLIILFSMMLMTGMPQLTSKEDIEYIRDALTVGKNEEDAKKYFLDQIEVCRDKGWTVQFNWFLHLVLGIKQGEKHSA

COc1ncc(-c2sc(NC(=O)CC3CCOCC3)nc2C)cc1S(=O)(=O)NC1CCCC(O)C1 (stereo not shown) [Compound S-263]
IC50: 1 to 10 µM

Source: US10428060B2, “PI-kinase inhibitors with anti-infective activity” (The Board of Trustees of the Leland Stanford Junior …, priority 2011, dated 2019)
